In patent US20050147565A1, “Pharmaceutical compositions for the treatment of asthma” (Schering Corporation, priority 2001, published 2005):

Tests used:
[1] = cited from earlier work
[2] = Drug Content Uniformity (DCU) through the life of a 120 dose MDI; assay type: physicochemical; settings: Formoterol/Mometasone 6/50 μg/actuation inhaler
Method: The Drug Content Uniformity (DCU) of the inhaler was measured throughout the life of a 120 dose MDI to ascertain whether there was a consistency of dose of the active ingredients throughout the life of the product. Five canisters of each formulation (HFA 227 or HFA 134a) were analyzed and each canister delivered 120 actuations of medication and the amount of actives exiting the inhaler per actuation was measured at varying actuations, e.g., numbers 11, 12, 13, 14, (beginning) 59, 60, 61, 62 (middle) and 117, 118, 119 and 120 (end). Means were determined for the beginning, middle and end actuations, and an overall mean was determined and set forth in Examples 9 and 10 above.

[3] = Andersen Cascade Impactor particle size distribution of the emitted dose of the metered dose inhaler; assay type: physicochemical; settings: Formoterol/Mometasone 6/50 μg/actuation inhaler
Source text: The formulations of the present invention were further analyzed using an Andersen Cascade Impactor as described in Examples 6 and 7. The Andersen Cascade Impactor is widely used for measuring the particle size distribution of airborne particles and more specifically pharmaceutical aerosols. The eight stage Andersen Impactor separates the sample into nine size intervals when used with a backup filter after the last impaction stage. In FIGS. 1 to 4, this corresponds Stage 0 of particles having a particle size less than 10 μm to a particle size of 0.65-0.43 μm in stage 8, with the final stage corresponding to the filter for particles less than 0.43 μm. The measurement of the particle size at the “throat” in the figures corresponds to the entry port of the Impactor. The fine particle fraction is defined as the percentage of particles having a particle size of less than 4.7 μm. The fine particle dose is defined as the amount in μg per dose that is less than 4.7 μm in size in each actuation. The μg/shot is the total amount of emitted drug product that exits the metered dose inhaler upon actuation. The determination of the particle size distribution of the emitted dose of the formulation using an Andersen Cascade Impactor is known to one of skill in the art.
A formulation containing 6 μg of formoterol fumarate and 50 μg of mometasone furoate using HFA 227 in the absence of a bulking agent or carrier in a metered dose inhaler was analyzed by an Andersen Cascade Impactor to 5 analyze the amount of active drug ingredients and the particle size of the actives exiting the inhaler over time. […] The metered dose for both actives over time was also within acceptable limits (62.9 to 63.3 for mometasone and 6.6 to 6.5 for formoterol at the 4 month point). […]
A formulation containing 6 μg of formoterol fumarate and 50 μg of mometasone furoate using HFA 134a with lactose as a bulking agent in a metered dose inhaler was analyzed by an Andersen Cascade Impactor to analyze the amount of active drug ingredients and the particle size of the actives exiting the inhaler over time. […] Additionally, the metered dose actually delivered was also maintained over time within acceptable limits (64.1 to 63.7 for mometasone, 6.9 to 6.6 for formoterol). The fine particle fraction for both mometasone and formoterol was maintained within acceptable limits.

[4] = HFA 134a, low bulking agent (lactose), 1 Month, 4 C./40 C.
[5] = HFA 134a, low bulking agent (lactose), 1 Month, 40 C./75%
[6] = HFA 134a, low bulking agent (lactose), 3 Month, 4 C./40 C.
[7] = HFA 134a, low bulking agent (lactose), 4 Month, 25 C./60%
[8] = HFA 134a, low bulking agent (lactose), 4 Month, 40 C./75%
[9] = HFA 134a, low bulking agent (lactose), Initial
[10] = HFA 227, without bulking agent, 1 Month, 4 C./40 C.
[11] = HFA 227, without bulking agent, 1 Month, 40 C./75%
[12] = HFA 227, without bulking agent, 3 Month, 4 C./40 C.
[13] = HFA 227, without bulking agent, 4 Month, 25 C./60%
[14] = HFA 227, without bulking agent, 4 Month, 40 C./75%
[15] = HFA 227, without bulking agent, Initial

COc1ccc(CC(C)NCC(O)c2ccc(O)c(NC=O)c2)cc1.COc1ccc(CC(C)NCC(O)c2ccc(O)c(NC=O)c2)cc1.O.O.O=C(O)/C=C/C(=O)O (racemic) [Formoterol Fumarate, (±)2-hydroxy-5-[(1RS)-1-hydroxy-2-[[(1RS)-2-(4-methoxyphenyly-1methylethyl]-amino]ethyl]formanilide fumarate dihydrate]
solubility in acetone ([1]; acetone): practically insoluble | solubility in diethyl ether ([1]; diethyl ether): practically insoluble | solubility in ethanol ([1]; ethanol): sparingly soluble | solubility in ethyl acetate ([1]; ethyl acetate): practically insoluble | solubility in glacial acetic acid ([1]; glacial acetic acid): freely soluble | solubility in isopropanol ([1]; isopropanol): sparingly soluble | solubility in methanol ([1]; methanol): soluble | solubility in water ([1]; water): slightly soluble | Overall Mean μg/shot ([2]; HFA 134a, low bulking agent, 1 Month, 4 C./40 C.): 5.6 μg/shot | Overall Mean μg/shot ([2]; HFA 134a, low bulking agent, 1 Month, 40 C./75%): 6.0 μg/shot | Overall Mean μg/shot ([2]; HFA 134a, low bulking agent, Initial): 6.2 μg/shot | Overall Mean μg/shot ([2]; HFA 227, no bulking agent, 1 Month, 4 C./40 C.): 5.5 μg/shot | Overall Mean μg/shot ([2]; HFA 227, no bulking agent, 1 Month, 40 C./75%): 5.7 μg/shot | Overall Mean μg/shot ([2]; HFA 227, no bulking agent, Initial): 5.7 μg/shot | Fine Particle Dose (μg/shot) [3, 4]: 2.0 μg/shot | Fine Particle Fraction % [3, 4]: 38.0% | MMAD (microns) [3, 4]: 3.1 microns | Fine Particle Dose (μg/shot) [3, 5]: 2.1 μg/shot | Fine Particle Fraction % [3, 5]: 41.3% | MMAD (microns) [3, 5]: 2.9 microns | Fine Particle Dose (μg/shot) [3, 6]: 2.2 μg/shot | Fine Particle Fraction % [3, 6]: 40.2% | MMAD (microns) [3, 6]: 3.2 microns | Fine Particle Dose (μg/shot) [3, 7]: 2.3 μg/shot | Fine Particle Fraction % [3, 7]: 43.6% | MMAD (microns) [3, 7]: 3.0 microns | Fine Particle Dose (μg/shot) [3, 8]: 2.1 μg/shot | Fine Particle Fraction % [3, 8]: 40.3% | MMAD (microns) [3, 8]: 3.1 microns | Fine Particle Dose (μg/shot) [3, 9]: 2.4 μg/shot | Fine Particle Fraction % [3, 9]: 42.5% | MMAD (microns) [3, 9]: 2.9 microns | Fine Particle Dose (μg/shot) [3, 10]: 2.2 μg/shot | Fine Particle Fraction % [3, 10]: 39.0% | MMAD (microns) [3, 10]: 3.3 microns | μg/shot (metered dose) [3, 10]: 6.3 μg/shot | Fine Particle Dose (μg/shot) [3, 11]: 2.4 μg/shot | Fine Particle Fraction % [3, 11]: 41.1% | MMAD (microns) [3, 11]: 3.2 microns | μg/shot (metered dose) [3, 11]: 6.6 μg/shot | Fine Particle Dose (μg/shot) [3, 12]: 1.9 μg/shot | Fine Particle Fraction % [3, 12]: 35.2% | MMAD (microns) [3, 12]: 3.3 microns | μg/shot (metered dose) [3, 12]: 6.3 μg/shot | Fine Particle Dose (μg/shot) [3, 13]: 2.6 μg/shot | Fine Particle Fraction % [3, 13]: 47.3% | MMAD (microns) [3, 13]: 3.2 microns | μg/shot (metered dose) [3, 13]: 6.5 μg/shot | Fine Particle Dose (μg/shot) [3, 14]: 2.2 μg/shot | Fine Particle Fraction % [3, 14]: 40.1% | MMAD (microns) [3, 14]: 3.4 microns | μg/shot (metered dose) [3, 14]: 6.5 μg/shot | Fine Particle Dose (μg/shot) [3, 15]: 2.6 μg/shot | Fine Particle Fraction % [3, 15]: 46.3% | MMAD (microns) [3, 15]: 3.2 microns | μg/shot (metered dose) [3, 15]: 6.6 μg/shot
